# Laboratory results as given in US10238713B2, “Cyclic tetrapeptides and therapeutic applications thereof” (LODZ UNIVERSITY OF TECHNOLOGY, priority 2010, dated 2019).
# Non-standard residues stand in square brackets, D forms with d. Residues, ends and D or L forms follow the SMILES beside them. β3hF = N[C@H](CC(=O)O)Cc1ccccc1
# Test system: BALB/c mice, contact sensitivity to oxazolone
# Assay: Contact sensitivity to oxazolone in BALB/c mice (ear edema, draining lymph node cells, auricle histology)
# Assay type: in vivo
# Experimental: Mice: BALB/c female mice, 8-10 week-old, delivered by the Institute of Laboratory Medicine, Łódź, Poland, were used for the study. The mice were fed a commercial, pelleted food and water ad libitum. The local ethics committee approved the study.
# The test was performed according to Noonan et al. (Int. Arch. Allergy Appl. Immunol., 1978, 56, 523-532), with some modifications. Mice were shaved on the abdomen (2×2 cm area) and after 24 h 100 μl of 0.5% oxazolone in acetone was applied to the shaved area. The contact sensitivity reaction was elicited 5 days later by application of 50 μl of 1% oxazolone in acetone on both sides of the ears. Ear edema was measured 48 h later using a spring caliper. The results were presented as antigen-specific increase of ear thickness (i.e. the background (BG) ear thickness of mice was subtracted from the measured thickness).
# In the experiment shown, the compound of formula I-A was applied topically as a 0.1% ointment on both sides of the ears (total volume of 50 μl per ear), at 24 h and 26 h after elicitation of the reaction with the second dose of oxazolone. Reference compounds were used in a similar fashion in the form of commercially available preparations.
# Superficial parotid, mandibular and accessory mandibular lymph nodes were isolated, homogenized by pressing against a stainless screen into phosphate buffered solution (PBS), washed twice and re-suspended in PBS containing 0.2% Trypan blue. The total and nonviable cell numbers were determined using a light microscope and Bürker's hemocytometer. Mice treated only with the eliciting dose of antigen served as a background control.
# The auricles were fixed in 4% formalin solution for 48 h, washed for 24 h, dehydrated in an alcohol series and embedded in paraffin. The paraffin blocks were sliced in a Micron HM310 microtome into 6 μm sections. The sections were stained with haematoxylin and eosin and with toluidine blue. The histological analysis was performed in a Nikon Eclipse 801 light microscope. On the histological slides containing cross-sections of auricles, the morphometric estimations of neutrophils, macrophages, lymphocytes and mast cells in the perivascular and subepithelial connective tissue were performed. The cells were counted on the area of 0.07 mm^2 at 400× magnification. Morphometric analysis was done with the aid of imagine software NIS-Elements (Nikon). For every examined group, 25 enumerations of neutrophils, macrophages, lymphocytes and mast cells were carried out.
smiles,measurement,setting,value
O=C1C[C@H](Cc2ccccc2)NC(=O)[C@@H]2CCCN2C(=O)[C@@H]2CCCN2C(=O)[C@H](Cc2ccccc2)N1 [I-A] (cyclo(FPP[β3hF])),toxic effect on draining lymph node cells (proportions of viable and dead cells),"topical treatment, compared to control non-treated mice, FIG. 3",negligible toxic effect
same,number of cells in the draining lymph nodes,"topical treatment, FIG. 2",decreased the numbers of lymphocytes in the draining lymph nodes to the level registered in non-sensitized mice
same,cell number and composition in the inflamed auricles (histology),"topical treatment, FIG. 4",almost entirely reversed the changes observed in control mice
same,inhibition of the ear edema (antigen-specific increase of ear thickness),"topical, I-A as 0.1% ointment, references as commercial preparations, 24 h and 26 h after elicitation, FIG. 1",about 80%
